Test results: patent EP4410284A1, “COMPOUND AND METHOD FOR THE TREATMENT OF ZELLWEGER SPECTRUM DISORDER” (Apteeus, priority 2023, dated 2024)
Where a name gives a salt, the structure may show the parent alone. Read-outs that look alike come from different tables or passages of the source.

Experiments:
GM16513 cells [1] = test: Catalase import immunofluorescence, high-content screening (% importing cells); assay type: cell-based, human; details: GM16513 cells, 3 days; for EC50 / Emax: Homo sapiens, 72 h, dose response with 6 concentrations; for EC50: read-out: EC50; for Emax: read-out: Max Efficacy (% Importing cells)
Protocol: (§1) Primary fibroblasts were seeded at 500-700 cells per well in 384-well plates and grown at 37°C overnight. Cells were treated with test compounds or 0.1% DMSO for 3 days. After 3 days and a wash with PBS, cells were fixed with 4% paraformaldehyde (Electron Microscopy Sciences) in PBS for 20 minutes. After 3 washes with PBS, the cells were permeabilized and blocked with 0.3% Triton X-100, 1% BSA in PBS for 30 minutes at room temperature followed by 3 washes with 1% BSA in PBS. The cells were incubated with a rabbit Catalase polyclonal antibody (#12980 Cell signaling) overnight at 4°C. Following 3 washes with PBS containing 0.1% Tween-20, the cells were incubated for 1 h at room temperature with a conjugated goat anti-rabbit secondary antibody Alexa Fluor 647 (Ab150083-Abcam). The cells were then washed 3 times with PBS and Hoechst 33342 (H3570-ThermoFisher Scientific) + HCS Cellmask Blue (H32720 - ThermoFisher Scientific) staining was performed at 0.1 µg/ml and 0.4 µg/mL respectively for 30 minutes at room temperature. The cells were finally washed 3 times with PBS and fluorescent images were acquired using the INCell Analyzer 6000 imaging platform (GE Healthcare Life Sciences).
Images analysis was done using Columbus analysis software (PerkinElmer). DAPI channel was used to find nuclei (Hoechst 33342) and cytoplasm (HCS CellMask Blue) and border objects were removed. Cy5 channel (AlexaFluor 647) was used to find spots corresponding to peroxisomes which correctly import catalase. […] The number of importing or non-importing cells was calculated. Finally, results were expressed as % of importing cells.
(§2) The cytotoxicity was assessed in parallel using a double nucleus staining with Hoechst 33342 and Propidium Iodide (PI).
The EC50 and maximum efficacy of these inhibitors were determined.

GM16513 cells [2] = assay type: cell-based; details: 3 days, PI positive cells (dead cells)
Protocol: (§3) Images were acquired using the EnSight multimode plate reader (PerkinElmer) and analysis was done using Columbus analysis software (PerkinElmer). […] Then the total number of cells and the % of dead cells was calculated.
(§4) All HDAC inhibitors were tested at 1.3 and 10 µM for 3 days on GM16513 and PEX405 cells.

PEX405 cells [3] = test: Catalase import immunofluorescence, high-content screening (% importing cells); assay type: cell-based, human; details: PEX405 cells, 3 days
Protocol: as §1
Images analysis was done using Columbus analysis software (PerkinElmer). DAPI channel was used to find nuclei (Hoechst 33342) and cytoplasm (HCS CellMask Blue) and border objects were removed. Cy5 channel (AlexaFluor 647) was used to find spots corresponding to peroxisomes which correctly import catalase. Cells were classified as importing or non-importing cells using a linear classifier method after training with images of wells containing Healthy cells and PEX1 deficient cells. The number of importing or non-importing cells was calculated. Finally, results were expressed as % of importing cells.
as §2

PEX405 cells [4] = assay type: cell-based; details: 3 days, PI positive cells (dead cells)
Protocol: as §3, §4

| SMILES | % Importing cells (GM16513 cells [1]; 1.3 µM) | % Importing cells (GM16513 cells [1]; 10 µM) | EC50 (GM16513 cells [1]) | Emax (GM16513 cells [1]) | % PI+ cells (GM16513 cells [2]; 1.3 µM) | % PI+ cells (GM16513 cells [2]; 10 µM) | % Importing cells (PEX405 cells [3]; 1.3 µM) | % Importing cells (PEX405 cells [3]; 10 µM) | % PI+ cells (PEX405 cells [4]; 1.3 µM) | % PI+ cells (PEX405 cells [4]; 10 µM) |
| --- | --- | --- | --- | --- | --- | --- | --- | --- | --- | --- |
| COc1ccc(-c2nc(N3CCOCC3)c3sc(CN(C)c4ncc(C(=O)NO)cn4)cc3n2)cn1 [Fimepinostat] | 81% | 61% | 10 nM | 92.5% | 25% | 29% | 25% | 4% | 43% | 55% |
| Oc1cc(O)cc(/C=C/c2c(O)cccc2O)c1 [Gnetol] | 12% | 9% |  |  | 1% | 1% | 2% | 3% | 1% | 1% |
| COc1ccc(/C=C/C(=O)NO)c(-c2ccc(-c3ccccc3)cc2)c1 [HDAC8-IN-1] | 10% | 3% |  |  | 2% | 14% | 2% | 0% | 0% | 2% |
| O=C(CCc1ccc(CN[C@H](C(=O)OC2CCCC2)C2CCCCC2)cn1)NO [HDAC-IN-3] | 50% | 81% |  |  | 3% | 26% | 11% | 0% | 4% | 43% |
| O=C(NO)c1ccc(CC(=O)N(CCO)c2ccccc2)cc1 [HPOB] | 29% | 55% |  |  | 1% | 1% | 6% | 13% | 1% | 1% |
| O=C(c1ccc(Cl)cc1Cl)n1nnc2ccccc21 [ITSA-1] | 9% | 12% |  |  | 1% | 1% | 3% | 1% | 0% | 0% |
| O=C(NO)c1ccc(Cn2c(=O)n(CCc3ccccc3)c(=O)c3ccccc32)cc1 [J22352] | 30% | 47% |  |  | 1% | 3% | 5% | 3% | 0% | 2% |
| O=C(NO)c1ccc(CN(c2cnccn2)c2cnccn2)cc1 [KA2507] | 17% | 52% | 14300 nM | 100% | 1% | 2% | 2% | 18% | 1% | 1% |
| Cc1cc(C)cc(C(=O)NOCCCCCC(=O)NO)c1 [LMK-235] | 86% | 95% |  |  | 2% | 15% | 45% | 18% | 1% | 16% |
| Cn1c(/C=C/C(=O)NO)ccc1/C=C/C(=O)c1cccc(F)c1 [MC1568] | 25% | 21% |  |  | 3% | 90% | 5% | 6% | 0% | 91% |
| O=C(NO)c1ccc(CNc2cccc3cccnc23)cc1 [MPT0G211] | 29% | 65% |  |  | 1% | 4% | 6% | 19% | 1% | 2% |
| O=C(/C=C/c1ccc(O)c(O)c1)c1ccc(O[C@@H]2O[C@H](CO)[C@@H](O)[C@H](O)[C@H]2O)c(O)c1O [Marein] | 20% | 22% |  |  | 1% | 77% | 5% | 4% | 0% | 74% |
| Nc1ccccc1NC(=O)c1ccc(CNc2nccc(-c3cccnc3)n2)cc1 [Mocetinostat] | 60% | 39% | 250 nM | 50% | 4% | 9% | 15% | 9% | 3% | 29% |
| Nc1ccccc1NC(=O)CCCCCC(=O)Nc1ccccc1 [NKL 22] | 28% | 55% |  |  | 1% | 4% | 7% | 13% | 0% | 1% |
| Nc1ccccc1NC(=O)c1ccc(Cn2cc(-c3ccc(C(=O)NCc4cccnc4)cc3)nn2)cc1 [Nampt-IN-3] | 80% | 74% |  |  | 3% | 3% | 33% | 31% | 1% | 4% |
| O=C(NO)c1cnc(N2C[C@@H]3[C@H](C2)[C@H]3NCc2ccc3cc(F)ccc3n2)nc1 [Nanatinostat] | 88% | 78% | 50 nM | 93% | 12% | 37% | 14% | 0% | 15% | 54% |
| CCCCN(Cc1ccc(C(=O)NO)cc1)C(=O)Nc1ccccc1 [Nexturastat A] | 35% | 83% |  |  | 2% | 4% | 8% | 27% | 1% | 3% |
| COc1ccc(Cn2ccc3ccc(C(=O)NO)cc32)cc1 [PCI-34051] | 16% | 7% |  |  | 1% | 2% | 2% | 1% | 1% | 1% |
| Cc1[nH]c2ccccc2c1CCNCc1ccc(/C=C/C(=O)NO)cc1 [Panobinostat] | 86% | 44% | 3.14 nM | 93% | 30% | 32% | 6% | 18% | 48% | 49% |
| Cc1ccc(NC(=O)CCCCCC(=O)Nc2ccccc2N)cc1 [Pimelic Diphenylamide 106] | 22% | 52% |  |  | 1% | 3% | 4% | 17% | 1% | 2% |
| CCCCc1nc2cc(/C=C/C(=O)NO)ccc2n1CCN(CC)CC [Pracinostat] | 92% | 86% | 170 nM | 93% | 4% | 31% | 52% | 25% | 2% | 41% |
| O=C(CCCCCCC(=O)Nc1cccnc1)NO [Pyroxamide] | 25% | 11% |  |  | 1% | 4% | 5% | 3% | 1% | 1% |
| O=C(NO)c1ccc(CNC(=O)c2[nH]c(-c3ccc(O)cc3)cc2-c2ccoc2)cc1.O=C(O)C(F)(F)F [QTX125 (TFA)] | 83% | 61% |  |  | 11% | 30% | 23% | 0% | 13% | 48% |
| Cn1cc(CNCC2CCN(c3ncc(C(=O)NO)cn3)CC2)c2ccccc21 [Quisinostat] | 98% | 86% | 30 nM | 95% | 17% | 38% | 40% | 26% | 24% | 53% |
| Nc1cc(F)ccc1NC(=O)/C=C/c1cnn(C/C=C/c2ccccc2)c1 [RGFP966] | 11% | 12% |  |  | 1% | 3% | 1% | 2% | 1% | 1% |
| COC(=O)c1ccc(OC(=O)CCCCCCC(=O)NO)cc1 [Remetinostat] | 12% | 14% |  |  | 1% | 1% | 3% | 2% | 0% | 1% |
| CN(C)Cc1ccc(S(=O)(=O)n2ccc(/C=C/C(=O)NO)c2)cc1 [Resminostat (hydrochloride), Resminostat] | 60% | 83% | 1400 nM | 86% | 2% | 8% | 13% | 19% | 1% | 4% |
| CCCCNNC(=O)c1ccc(-c2cccc(F)c2F)cc1 [SR-4370] | 26% | 30% |  |  | 1% | 2% | 5% | 7% | 0% | 1% |
